From patent publication US20110160265A1, “METHOD OF TREATING MOTOR DISORDERS WITH ALPHA-2B ADRENERGIC RECEPTOR AGONISTS” (priority 2007, published 2011)

Columns and labels:
mice [1] = assay: Cocaine-induced hyperlocomotion (open field); assay type: in vivo; conditions: drug 2 cocaine SC; for % DECREASE ACTIVITY: relative to Vehicle+Cocaine
Protocol: Table 3, below, indicates the locomotor responses of mice treated with various combinations of alpha-2B receptor agonists and the psychostimulant cocaine. Drug 1 was administered 30 minutes after the animal was placed in the open field. Drug 2 was administered subcutaneously (SC) at 45 minutes after the animal was placed in the open field (15 minutes after drug 1). AUC indicates the total amount of locomotor activity after administration of drug 2. “% decrease activity” indicates the percentage decrease in total activity relative to the Vehicle+Cocaine group. ° indicates significant difference (P<0.05) relative to Vehicle+Cocaine treated animals. * indicates significant difference (P<0.05) relative to Vehicle+Vehicle treated animals.
(§1) Amphetamine- or cocaine-induced hyperactivity. Mice were placed in an open field apparatus (FlexField, San Diego Instruments, San Diego, Calif.). After 30 minutes of habituation, they received a vehicle or haloperidol injection or injection of alpha-2B receptor agonist followed by an injection of amphetamine (2 mg/kg, s.c.) or cocaine (10 mg/kg, i.p.) at minute 45. Their activity levels were subsequently measured for another 1 hour post-injection. Total activity over each 5 minute bin (21 total bins) was added to establish activity curve over the 105 minute testing.
(§2) For i.p. administration, the compounds are formulated in H2O with 0.5% DMSO and given in a volume of 1 ml/kg body weight by injecting into the intraperitoneal cavity. For p.o. administration, the compounds are formulated in H2O with 0.5% DMSO and given in a volume of 2 ml/kg body weight using a 25-gauge, 1.5 inch gavage needle that is slowly inserted through the esophagus into the stomach.

mice [2] = assay: Amphetamine-induced hyperlocomotion (open field); assay type: in vivo; conditions: drug 2 amphetamine SC
Protocol: Table 2, below, indicates the locomotor responses of mice treated with various combinations of alpha-2B receptor agonists and the psychostimulant amphetamine. Drug 1 was administered 30 minutes after the animal was placed in the open field. Drug 2 was administered subcutaneously (SC) at 45 minutes after the animal was placed in the open field (15 minutes after drug 1). AUC indicates the total amount of locomotor activity after administration of drug 2. “% decrease activity” indicates the percentage decrease in total activity relative to the Vehicle+Amphetamine group. ° indicates significant difference (P<0.05) relative to Vehicle+Amphetamine treated animals. * indicates significant difference (P<0.05) relative to Vehicle+Vehicle treated animals.
as §1, §2

alpha-2A receptor = target: T1, alpha-2A receptor (Homo sapiens, UniProt P08913); assay: Alpha-2A receptor activity (efficacy relative to brimonidine); assay type: cell-based; conditions: in words; b7: lacks significant activity = less than 40% of the efficacy of brimonidine at alpha-2A
T1 sequence (P08913 1-465): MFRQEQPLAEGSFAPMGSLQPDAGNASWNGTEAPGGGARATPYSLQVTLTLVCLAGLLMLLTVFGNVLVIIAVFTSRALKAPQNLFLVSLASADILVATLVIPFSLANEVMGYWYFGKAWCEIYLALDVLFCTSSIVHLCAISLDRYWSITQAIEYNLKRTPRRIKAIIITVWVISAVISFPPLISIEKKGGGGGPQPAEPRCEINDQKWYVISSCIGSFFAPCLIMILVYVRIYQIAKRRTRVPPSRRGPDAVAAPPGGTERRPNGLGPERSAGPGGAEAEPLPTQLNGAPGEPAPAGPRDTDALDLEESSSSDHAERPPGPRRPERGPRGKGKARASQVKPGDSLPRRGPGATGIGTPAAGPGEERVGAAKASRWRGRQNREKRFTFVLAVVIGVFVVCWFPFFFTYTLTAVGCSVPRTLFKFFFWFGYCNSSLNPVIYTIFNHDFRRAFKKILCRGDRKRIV
Excerpt: The methods of the present invention use alpha-2 agonists lacking significant activity at the alpha-2A receptor subtype. An agonist lacks significant alpha-2A receptor activity if the agonist has less than 40% of the efficacy of brimonidine at the alpha-2A receptor subtype. Compounds of the invention include, therefore, alpha-2B receptor agonists lacking significant alpha-2A activity; alpha 2B/2C receptor agonists lacking significant alpha-2A activity; and alpha-2C receptor agonists lacking significant alpha-2A activity.
Efficacy, also known as intrinsic activity, is a measure of maximal receptor activation achieved by a compound and can be determined using any accepted assay of alpha-adrenergic receptor activation, such as a cAMP or Receptor Selection and Amplification Technology (RSAT). Efficacy is represented as a ratio or percentage of the maximal effect of the drug to the maximal effect of a standard agonist for each receptor subtype. Brimonidine, itself an alpha-2B receptor agonist (it is has 100% the efficacy of brimonidine at the alpha-2B adrenergic receptor), is used as the standard agonist for the alpha-2B adrenergic receptors.
Agonist activity can be characterized using any of a variety of routine assays, including, for example, Receptor Selection and Amplification Technology (RSAT) assays (Messier et al., Pharmacol. Toxicol. 76:308-11 (1995); cyclic AMP assays (Shimizu et al., J. Neurochem. 16:1609-1619 (1969)); and cytosensor microphysiometry assays (Neve et al., J. Biol. Chem. 267:25748-25753 (1992)). Such assays generally are performed using cells that naturally express only a single alpha-adrenergic receptor subtype, or using transfected cells expressing a single recombinant alpha-adrenergic receptor subtype. The adrenergic receptor can be a human receptor or homolog of a human receptor having a similar pharmacology.
The RSAT assay measures receptor-mediated loss of contact inhibition resulting in selective proliferation of receptor-containing cells in a mixed population of confluent cells. The increase in cell number is assessed with an appropriate detectable marker gene such as beta-galactosidase, if desired, in a high throughput or ultra high throughput assay format. Receptors that activate the G protein, Gq, elicit the proliferative response. Alpha-adrenergic receptors, which normally couple to Gi, activate the RSAT response when coexpressed with a hybrid Gq protein containing a Gi receptor recognition domain, designated Gq/i5. Conklin et al., Nature 363:274-6 (1993)).
As an example, an RSAT assay can be performed essentially as follows. NIH-3T3 cells are plated at a density of 2×10^6 cells in 15 cm dishes and maintained in Dulbecco's modified Eagle's medium supplemented with 10% calf serum. One day later, cells are cotransfected by calcium phosphate precipitation with mammalian expression plasmids encoding p-SV-β-galactosidase (5-10 μg), receptor (1-2 μg) and G protein (1-2 μg). Carrier DNA, for example 40 μg salmon sperm DNA, also can be included to increase transfection efficiency. Fresh media is added on the following day; one to two days later, cells are harvested and frozen in 50 assay aliquots. Transfected cells are thawed, and 100 μl of cells added to 100 μl aliquots of compound to be tested, with various concentrations assayed in triplicate, for example, in 96-well plates. Incubation continues for 72 to 96 hours at 37° C. After washing with phosphate-buffered saline, β-galactosidase activity is determined by adding 200 μl of chromogenic substrate (3.5 mM O-nitrophenyl-β-D-galactopyranoside/0.5% NP-40 in phosphate buffered saline), incubating overnight at 30° C., and measuring optical density at 420 nm. The absorbancy is a measure of enzyme activity, which depends on cell number and reflects receptor-mediated cell proliferation. The EC50 and maximal effect (i.e., efficacy) of each drug at each receptor is determined.

[3] = system: nigrostriatal-lesioned rats; assay: Nigrostriatal-lesion-induced rotational behavior following amphetamine administration; assay type: in vivo; conditions: relative to Vehicle+Amphetamine, drug 2 amphetamine SC
Protocol: Table 4, below, indicates the changes in rotational behavior in nigrostriatal-lesioned rats treated with various alpha-2B receptor agonists and the psychostimulant amphetamine. Drug 1 was administered 15 minutes before amphetamine, and 10 minutes post-amphetamine, the animals were placed into the rotometer for 30 or 60 minutes. “% decrease rotations” indicates the percentage decrease in total rotations relative to the Vehicle+Amphetamine group. ^⋄ indicates significant difference (P<0.05) relative to Vehicle+Amphetamine treated animals. * indicates significant difference (P<0.05) relative to Vehicle+Vehicle treated animals.
Amphetamine-induced rotational behavior. Pre-Apomorphine-screened (rotated) rats (with lesions ≧95% DA cell loss) were purchased from Charles Rivers Laboratories. Animals were given ˜4 days to acclimate prior to testing. All animals weighted 250-300 g at the beginning of the study. Animals were treated with various combinations of vehicle or alpha-2B receptor agonist and amphetamine.
Vehicle or alpha-2B receptor agonist was administered (p.o.) 15 minutes before amphetamine (2 mg/kg s.c.). Rotational behavior was assessed 15 minutes post-amphetamine administration and was monitored for 60 minutes using a Rotometer system from San Diego Instruments (San Diego, Calif.).
as §2

Q: For OCCNC(=S)NCc1cccc(Cl)c1F [Compound A], which “TOTAL ACTIVITY POST-COCAINE (AUC)” value (mice [1]; drug 1 0.03 mg/kg PO) is on record?
A: Its value is 8469 ± 935.01.

Q: What about the “TOTAL ACTIVITY POST-COCAINE (AUC)” value (mice [1]; drug 1 0.1 mg/kg PO) of the same compound?
A: Its value is 6457.67 ± 754.0.

Q: What about the “TOTAL ACTIVITY POST-COCAINE (AUC)” value (mice [1]; drug 1 0.3 mg/kg PO) of the same compound?
A: Its value is 3543 ± 648.02.

Q: And the “% DECREASE ACTIVITY” value (mice [1]; drug 1 0.03 mg/kg PO)?
A: The value was 19% * ^.

Q: What about the “% DECREASE ACTIVITY” value (mice [1]; drug 1 0.1 mg/kg PO) of the same compound?
A: Its value is 38% ^⋄ *.

Q: What about the “% DECREASE ACTIVITY” value (mice [1]; drug 1 0.3 mg/kg PO) of the same compound?
A: Its value is 66% ^⋄.

Q: What about the “% DECREASE ACTIVITY REL TO VEH + AMPH” value (mice [2]; drug 1 0.03 mg/kg IP) of the same compound?
A: Its value is 55% ^⋄.

Q: What about the “TOTAL ACTIVITY POST-AMPHETAMINE (AUC)” value (mice [2]; drug 1 0.03 mg/kg IP) of the same compound?
A: Its value is 5524.8 ± 624.2.

Q: What about the alpha-2A receptor activity (alpha-2A receptor) of the same compound?
A: The alpha-2A receptor activity was “lack significant alpha-2A receptor activity”.

Q: And the “% DECREASE ROTATIONS” value ([3]; drug 1 0.03 mg/kg PO)?
A: Its value is 65% ^⋄ *.

Q: Which results are given for c1ccc2c(c1)CC[C@@H](Cc1c[nH]cn1)C2 [Compound B]?
A: % DECREASE ACTIVITY REL TO VEH + AMPH (mice [2]; drug 1 0.03 mg/kg IP): 68% ^⋄; TOTAL ACTIVITY POST-AMPHETAMINE (AUC) (mice [2]; drug 1 0.03 mg/kg IP): 3940.5 ± 573.7; % DECREASE ACTIVITY REL TO VEH + AMPH (mice [2]; drug 1 1 mg/kg IP): 64% ^⋄; TOTAL ACTIVITY POST-AMPHETAMINE (AUC) (mice [2]; drug 1 1 mg/kg IP): 4462.0 ± 957.5; alpha-2A receptor activity (alpha-2A receptor): lack significant alpha-2A receptor activity; % DECREASE ROTATIONS ([3]; drug 1 0.03 mg/kg PO): 29% * ^

Q: How did the “% DECREASE ACTIVITY REL TO VEH + AMPH” value (mice [2]; drug 1 0.03 mg/kg IP) turn out when Clc1cccc(C(c2ccccc2)c2c[nH]cn2)c1Cl (centres unmarked) [Compound C] was run?
A: Its value is 52% ^⋄.

Q: And the “TOTAL ACTIVITY POST-AMPHETAMINE (AUC)” value (mice [2]; drug 1 0.03 mg/kg IP)?
A: Its value is 6348.0 ± 423.4.

Q: What about the alpha-2A receptor activity (alpha-2A receptor) of the same compound?
A: Its alpha-2A receptor activity is “lack significant alpha-2A receptor activity”.

Q: What does the source list for S=c1[nH]cc(CC2CC=CC2)[nH]1 [Compound D]?
A: % DECREASE ACTIVITY REL TO VEH + AMPH (mice [2]; drug 1 0.01 mg/kg PO): 14% *; TOTAL ACTIVITY POST-AMPHETAMINE (AUC) (mice [2]; drug 1 0.01 mg/kg PO): 10664.0 ± 786.2; % DECREASE ACTIVITY REL TO VEH + AMPH (mice [2]; drug 1 0.03 mg/kg PO): 51% ^⋄; TOTAL ACTIVITY POST-AMPHETAMINE (AUC) (mice [2]; drug 1 0.03 mg/kg PO): 5987.5 ± 1369.; % DECREASE ACTIVITY REL TO VEH + AMPH (mice [2]; drug 1 0.1 mg/kg PO): 43% ^⋄ *; TOTAL ACTIVITY POST-AMPHETAMINE (AUC) (mice [2]; drug 1 0.1 mg/kg PO): 6992.5 ± 693.1; % DECREASE ACTIVITY REL TO VEH + AMPH (mice [2]; drug 1 1 mg/kg PO): 62% ^⋄; TOTAL ACTIVITY POST-AMPHETAMINE (AUC) (mice [2]; drug 1 1 mg/kg PO): 4650.0 ± 628.9; alpha-2A receptor activity (alpha-2A receptor): lack significant alpha-2A receptor activity; % DECREASE ROTATIONS ([3]; drug 1 0.1 mg/kg PO): 51% ^⋄ *; % DECREASE ROTATIONS ([3]; drug 1 1 mg/kg PO): 60% ^⋄ *

Q: Which results are given for Clc1cccc(CNC2=NCCN2)c1Cl [Compound F]?
A: % DECREASE ACTIVITY REL TO VEH + AMPH (mice [2]; drug 1 0.03 mg/kg IP): 26% ^⋄ *; TOTAL ACTIVITY POST-AMPHETAMINE (AUC) (mice [2]; drug 1 0.03 mg/kg IP): 9933.0 ± 1898.7; % DECREASE ACTIVITY REL TO VEH + AMPH (mice [2]; drug 1 0.3 mg/kg IP): 29% ^⋄ *; TOTAL ACTIVITY POST-AMPHETAMINE (AUC) (mice [2]; drug 1 0.3 mg/kg IP): 9442.3 ± 1306.7; % DECREASE ACTIVITY REL TO VEH + AMPH (mice [2]; drug 1 1 mg/kg IP): 45% ^⋄; TOTAL ACTIVITY POST-AMPHETAMINE (AUC) (mice [2]; drug 1 1 mg/kg IP): 7437.8 ± 1812.4; % DECREASE ACTIVITY REL TO VEH + AMPH (mice [2]; drug 1 3 mg/kg IP): 62% ^⋄; TOTAL ACTIVITY POST-AMPHETAMINE (AUC) (mice [2]; drug 1 3 mg/kg IP): 5169.0 ± 1481.4; alpha-2A receptor activity (alpha-2A receptor): lack significant alpha-2A receptor activity

Q: Which results are given for O=C(CCCN1CCC(O)(c2ccc(Cl)cc2)CC1)c1ccc(F)cc1 [Haloperidol, reference compound]?
A: % DECREASE ACTIVITY REL TO VEH + AMPH (mice [2]; drug 1 0.2 mg/kg IP): 91% ^⋄ *; TOTAL ACTIVITY POST-AMPHETAMINE (AUC) (mice [2]; drug 1 0.2 mg/kg IP): 1123.2 ± 280.1
